Measured values taken from article PMC8048572, “Release of Soybean Isoflavones by Using a β‐Glucosidase from Alicyclobacillus herbarius” (Chembiochem, 2020).

How the values were obtained:
AheGH1 [1] = target: T1, AheGH1 (Paenalicyclobacillus herbarius, UniProt A0A8I3B065); assay: spectrophotometric pNPG hydrolysis at […] nm; type: biochemical; conditions: 10 mM pNPG, 50 mM HEPES, pH 7.4, 25 °C; product inhibitor
T1 construct: codon-optimised synthetic gene, C-terminal poly-His tag (pCH93b), E. coli BL21(DE3)
T1 sequence (A0A8I3B065 1-452): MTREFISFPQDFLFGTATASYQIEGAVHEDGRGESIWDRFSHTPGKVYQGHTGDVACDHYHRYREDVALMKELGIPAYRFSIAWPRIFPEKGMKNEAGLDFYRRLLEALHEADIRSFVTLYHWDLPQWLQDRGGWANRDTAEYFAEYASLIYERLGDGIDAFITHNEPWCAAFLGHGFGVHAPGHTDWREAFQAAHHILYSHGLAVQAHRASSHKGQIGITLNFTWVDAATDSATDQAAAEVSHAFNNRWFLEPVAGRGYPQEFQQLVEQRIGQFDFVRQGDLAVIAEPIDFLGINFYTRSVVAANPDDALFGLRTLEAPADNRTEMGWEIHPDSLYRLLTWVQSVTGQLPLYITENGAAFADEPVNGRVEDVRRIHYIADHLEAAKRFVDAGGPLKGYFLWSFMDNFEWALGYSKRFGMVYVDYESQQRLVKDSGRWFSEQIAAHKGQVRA

AheGH1 [2] = target: T1, AheGH1; assay: spectrophotometric p-nitrophenol release at […] nm, substrate inhibition fit; type: biochemical; conditions: 50 mM HEPES, pH 7.4, 25 °C; substrate inhibition constant
purified protein = substrate: O=[N+]([O-])c1ccc(O[C@@H]2O[C@H](CO)[C@@H](O)[C@H](O)[C@H]2O)cc1; assay: purified protein; conditions: 50 mM HEPES, pH 7.4, 25 °C

With `OC[C@H]1OC(O)[C@H](O)[C@@H](O)[C@@H]1O` (stereo partly shown) [glucose] the “% activity retained at 10 % (w/v) glucose” value (AheGH1 [1]) was 65%.

For `O=[N+]([O-])c1ccc(O[C@@H]2O[C@H](CO)[C@@H](O)[C@H](O)[C@H]2O)cc1` [pNPG, p‐nitrophenyl‐β‐D‐glucopyranoside], the K i (AheGH1 [2]) was 37 ± 6 mM.

B1: AheGH1 (Paenalicyclobacillus herbarius) (protein)
chain: T1 sequence (A0A8I3B065 1-452)
B1 was tested, and the Km (purified protein) was 1.4 ± 0.1 mM and the kcat (purified protein) was 2.7 ± 0.1 s⁻¹.
